Assay results as given in patent US8410161B2, “Thioxanthone ring system derivatives” (National Defense Medical Center, priority 2010, dated 2013).

What was measured:
NCI-H23 = experiment: NCI in vitro DTP human cell line screen, NCI-H23; type: cell-based; details: Non-Small Cell Lung Cancer, 1.00E−5 Molar
Experimental: (§1) Then, a cell toxicity assay of the cancer lines made by National Cancer Institute will be discussed as follows. The cell toxicity assay is performed by choosing ten compounds (existing certification numbers) from the 59 compounds disclosed in the present invention first.

UO-31 = experiment: NCI in vitro DTP human cell line screen, UO-31; type: cell-based; details: Renal Cancer, 1.00E−5 Molar
Experimental: as §1

MCF7 = experiment: NCI in vitro DTP human cell line screen, MCF7; type: cell-based; details: Breast Cancer, 1.00E−5 Molar
Experimental: as §1

SF-539 = experiment: NCI in vitro DTP human cell line screen, SF-539; type: cell-based; details: CNS Cancer, 1.00E−5 Molar
Experimental: as §1

HT29 = experiment: NCI in vitro DTP human cell line screen, HT29; type: cell-based; details: Colon Cancer, 1.00E−5 Molar
Experimental: as §1

K562 = experiment: NCI in vitro DTP human cell line screen, K562; type: cell-based; details: Leukemia, 1.00E−5 Molar
Experimental: as §1

SNB-19 = experiment: NCI in vitro DTP human cell line screen, SNB-19; type: cell-based; details: CNS Cancer, 1.00E−5 Molar
Experimental: as §1

SN12C = experiment: NCI in vitro DTP human cell line screen, SN12C; type: cell-based; details: Renal Cancer, 1.00E−5 Molar
Experimental: as §1

EKVX = experiment: NCI in vitro DTP human cell line screen, EKVX; type: cell-based; details: Non-Small Cell Lung Cancer, 1.00E−5 Molar
Experimental: as §1

SW-620 = experiment: NCI in vitro DTP human cell line screen, SW-620; type: cell-based; details: Colon Cancer, 1.00E−5 Molar
Experimental: as §1

RXF 393 = experiment: NCI in vitro DTP human cell line screen, RXF 393; type: cell-based; details: Renal Cancer, 1.00E−5 Molar
Experimental: as §1

BT-549 = experiment: NCI in vitro DTP human cell line screen, BT-549; type: cell-based; details: Breast Cancer, 1.00E−5 Molar
Experimental: as §1

KM12 = experiment: NCI in vitro DTP human cell line screen, KM12; type: cell-based; details: Colon Cancer, 1.00E−5 Molar
Experimental: as §1

SF-295 = experiment: NCI in vitro DTP human cell line screen, SF-295; type: cell-based; details: CNS Cancer, 1.00E−5 Molar
Experimental: as §1

IGROV1 = experiment: NCI in vitro DTP human cell line screen, IGROV1; type: cell-based; details: Ovarian Cancer, 1.00E−5 Molar
Experimental: as §1

RPMI-8226 = experiment: NCI in vitro DTP human cell line screen, RPMI-8226; type: cell-based; details: Leukemia, 1.00E−5 Molar
Experimental: as §1

OVCAR-5 = experiment: NCI in vitro DTP human cell line screen, OVCAR-5; type: cell-based; details: Ovarian Cancer, 1.00E−5 Molar
Experimental: as §1

60 cancer lines = experiment: NCI cell toxicity assay of 60 cancer lines, whole panel summary; type: cell-based, human; details: mean over all cell lines; 1.00E−5 Molar
Experimental: as §1

HCT-116 = experiment: NCI in vitro DTP human cell line screen, HCT-116; type: cell-based; details: Colon Cancer, 1.00E−5 Molar
Experimental: as §1

[1] = MTT assay, HEL299 fibroblast; type: cell-based; details: human
Source text: Please refer to FIG. 4C, various cell viabilities of the HEL299 cell lines can be obtained through the MTT assay while the compounds No. 1˜30 are used to treat HEL299 cell lines, wherein HEL299 cell lines are fibroblast.

CAKI-1 = experiment: NCI in vitro DTP human cell line screen, CAKI-1; type: cell-based; details: Renal Cancer, 1.00E−5 Molar
Experimental: as §1

TK-10 = experiment: NCI in vitro DTP human cell line screen, TK-10; type: cell-based; details: Renal Cancer, 1.00E−5 Molar
Experimental: as §1

PC-3 = experiment: NCI in vitro DTP human cell line screen, PC-3; type: cell-based; details: Prostate Cancer, 1.00E−5 Molar
Experimental: as §1

SF-268 = experiment: NCI in vitro DTP human cell line screen, SF-268; type: cell-based; details: CNS Cancer, 1.00E−5 Molar
Experimental: as §1

HS 578-T = experiment: NCI in vitro DTP human cell line screen, HS 578-T; type: cell-based; details: Breast Cancer, 1.00E−5 Molar
Experimental: as §1

NCI-H460 = experiment: NCI in vitro DTP human cell line screen, NCI-H460; type: cell-based; details: Non-Small Cell Lung Cancer, 1.00E−5 Molar
Experimental: as §1

A3 cell lines = experiment: MTT assay, A3 cell lines (lung cancer stem cell); type: cell-based
Source text: Please to FIG. 4B, various cell viabilities of the A3 cell lines can be obtained through the MTT assay and illustrated in FIG. 4B while the compounds No. 1˜30 are used to treat A3 cell lines, wherein A3 cell lines are lung cancer stem cell.

HCC-2998 = experiment: NCI in vitro DTP human cell line screen, HCC-2998; type: cell-based; details: Colon Cancer, 1.00E−5 Molar
Experimental: as §1

U251 = experiment: NCI in vitro DTP human cell line screen, U251; type: cell-based; details: CNS Cancer, 1.00E−5 Molar
Experimental: as §1

OVCAR-8 = experiment: NCI in vitro DTP human cell line screen, OVCAR-8; type: cell-based; details: Ovarian Cancer, 1.00E−5 Molar
Experimental: as §1

Structure (SMILES): Cc1cc(C)cc(Sc2ccc3c(=O)c4ccccc4sc3c2Cl)c1 [No. 14, 4-Chloro-3-(3,5-dimethylphenylthio)-9H-thioxanthen-9-one]
- Growth Percent (NCI-H23): 92.54%
- Growth Percent (UO-31): 87.22%
- Growth Percent (MCF7): 94.94%
- Growth Percent (SF-539): 105.19%
- Growth Percent (HT29): 95.28%
- Growth Percent (K562): 100.94%
- Growth Percent (SNB-19): 108.53%
- Growth Percent (SN12C): 101.79%
- Growth Percent (EKVX): 96.66%
- Growth Percent (SW-620): 104.39%
- Growth Percent (RXF 393): 114.27%
- Growth Percent (BT-549): 105.50%
- Growth Percent (KM12): 109.61%
- Growth Percent (SF-295): 116.45%
- Growth Percent (IGROV1): 100.06%
- Growth Percent (RPMI-8226): 101.54%
- Growth Percent (OVCAR-5): 98.39%
- Growth Percent, Mean (60 cancer lines): 101.73%
- Growth Percent (HCT-116): 93.28%
- viability [1]: 104 ± 9.21%
- Growth Percent (CAKI-1): 90.10%
- Growth Percent (TK-10): 103.30%
- Growth Percent (PC-3): 97.92%
- Growth Percent (SF-268): 104.92%
- Growth Percent (HS 578-T): 103.67%
- Growth Percent (NCI-H460): 105.72%
- cell viabilities of A3 cell lines (MTT assay) (A3 cell lines): 113 ± 0.50%
- Growth Percent (HCC-2998): 101.80%
- Growth Percent (U251): 95.50%
- Growth Percent (OVCAR-8): 97.95%
